Assay results as given in ChEMBL document CHEMBL1126991, “Isatin oximes - A novel series of bioavailable non-NMDA antagonists” (Bioorg Med Chem Lett, 1993).

What was measured:
Mus musculus [1] = organism: Mus musculus; assay: Tested for the [Ca2+] i induced elevation using cultured mouse cortical neurons, exposed to 50 uM NMDA for 4 minutes; type: functional
Rattus norvegicus [2] = organism: Rattus norvegicus; assay: Tested for the ability to inhibit AMPA (5 uM) induced depolarizations in rat cortical wedge preparation; type: functional
[3] = biological target: Glutamate receptor ionotropic, AMPA (Rattus norvegicus, UniProt P19490+P19491+P19492+P19493); assay: Tested for the inhibition of binding of [3H]AMPA radioligand to Ionotropic glutamate receptor AMPA to cortical membranes from rat brain
Mus musculus [4] = organism: Mus musculus; assay: Tested for the effective dosage required for the protection against AMPA induced seizures; type: functional
Mus musculus [5] = organism: Mus musculus; assay: Tested for the [Ca2+] i induced elevation using cultured mouse cortical neurons, exposed to 5 uM AMPA for 4 minutes; type: functional
[6] = biological target: Glutamate receptor ionotropic, kainate
Description: Tested for the inhibition of binding of [3H]kainate radioligand to Ionotropic glutamate receptor kainate of cortical membranes from rat brain

Rattus norvegicus [7] = organism: Rattus norvegicus; assay: Tested for the ability to inhibit NMDA (20 uM) induced depolarizations in rat cortical wedge preparation; type: functional

SMILES | IC50 (Mus musculus [1]) [µM] | IC50 (Rattus norvegicus [2]) [µM] | IC50 [3] [µM] | ED50 (Mus musculus [4]) [mg/kg] | IC50 (Mus musculus [5]) [µM] | IC50 [6] [µM] | IC50 (Rattus norvegicus [7]) [µM]
CN(C)S(=O)(=O)c1cc2c(N=O)c(O)[nH]c2c2c1CCCC2 | > 30 | 3.5 | 1.8 | 3 | 5.4 | 27 | > 30
CNS(=O)(=O)c1cc2c(N=O)c(O)[nH]c2c2c1CCCC2 | > 30 | 5.2 | 2.8 | 30 | 11 | 30 | > 30
O=C1Nc2c(ccc3c2CCCC3)/C1=N/O |  |  | > 30 | > 30 |  | > 30 | 
O=Nc1c(O)[nH]c2c3c(c([N+](=O)[O-])cc12)CCCC3 | > 30 | > 30 | 8.1 | > 30 | > 30 | > 30 | > 30
N#Cc1cc2c(cc1[N+](=O)[O-])=NC(=O)C(=O)N=2 |  |  |  | 10 |  |  | 
NS(=O)(=O)c1cc2c(N=O)c(O)[nH]c2c2c1CCCC2 | > 30 | 2.5 | 2.8 | > 30 | 3.5 | 24.5 | > 30
NS(=O)(=O)c1cccc2c1c([N+](=O)[O-])cc1nc(O)c(O)nc12 [NBQX] | > 30 | 0.3 |  | 10 | 0.3 |  | > 30
